Measured values published in patent publication US5635510A, “Substituted pyrrolidin-3-yl-alkyl-piperidines” (Merrell Pharmaceuticals Inc., priority 1994, dated 1997).
Counter-ions that a name gives are not always drawn.

Columns and labels:
NK2 receptor [1] = assay: Antagonism of NKA-induced respiratory effects in conscious guinea pigs; assay type: in vivo, guinea pig; details: for dyspnea incidence: i.v. 20 min prior to NKA aerosol (0.05%)
Description: (§1) In vivo experiments were performed using male Duncan Hartley guinea pigs (250-350g). Changes in conscious breathing patterns were monitored in four animals simultaneously using modified whole body plethysmography consisting of four small plexiglass boxes each connected to a reference box via Validyne DP 45-16 differential pressure transducers. The 4 boxes were equipped with an air supply line (also used for aerosol delivery) and an exhaust air line. Supply and exhaust lines were of the same length and narrow bore and arose from a common supply chamber and vented to a common exhaust chamber. This system was used to ensure that fluctuations in supply air and atmospheric pressure would remain in phase and be eliminated from the net signal by the differential pressure transducers. The analog pressure signals were digitalized via a Data Translation DT2821 A to D board. Data were collected at a rate of 100 samples/second/animal. Each cycle of pressure change was analyzed using the following parameters: rising and falling slope determined between minimum and maximum pressures, the ratio of rising over falling slope, and the magnitude of the change between initial trough pressure and peak cycle pressure. Using these values (and observing the animals) the pressure cycles were characterized into normal breaths, forced exhalations (apparent by abdominal heaving), significant respiratory events (SREs; usually coughs, less often sneezes or gasps which were characterized by transient, extremely large pressure increases which were distinguishable from noise) and movement/noise with a PCAT 286 running a System V UNIX operating system. Dyspnea was defined as a significant, sustained increase in plethysmograph pressure which was associated with an observable shift to labored breathing in the animal.
(§2) During the course of a typical experiment in which airway responsiveness to various bronchoconstricting agents was examined, aerosols were delivered for 19 min (0.33 ml/min) using a DeVilbiss Ultraneb 99 ultrasonic nebulizer and animals monitored during this time. Prior to nebulization, 1 min of resting breathing was collected to establish a baseline pressure. […] The vehicle for nebulization of all bronchoconstrictive agents was phosphate buffered saline (pH 7.4) which elicited no respiratory effects itself. Putative tachykinin antagonists were administered either (i.v.) 20 min prior to onset of aerosol exposure or orally 1 hour prior to onset (to guinea pigs after an overnight fast).

NK1 receptor [2] = molecular target: T1, NK1 receptor (Homo sapiens, UniProt P25103); assay: Antagonism of NK1 receptor mediated (SP-induced) phosphatidylinositol turnover in UC11 cells; assay type: cell-based; details: for relative antagonism of NK1 and NK2 receptors (in words): PI turnover, UC11 (NK1) versus SKLKB82#3 (NK2) cells
T1 construct: antagonizes both NK1 (on UC11 cells); endogenous in cells; host or cells: UC11 cells
Description: (§3) Tachykinin-mediated inositol phosphate accumulation was measured in UC11 or SKLKB82#3 cells in the presence and absence of NK1 or NK2 receptor antagonists, respectively. Tissues were incubated in Krebs-Henseleit buffer at 37° C. with 95% O2 -5% CO2 gassing. Tissues were then incubated with fresh buffer containing 100 μCi of myo-[2-3H(N)] inositol at 37° C. for 60 min with gentle gassing. After washing twice in 5 ml room temperature buffer containing 10 mM LiCl, tissues were incubated for 30 min at room temperature with a buffer change at 15 min. Buffer was removed and Krebs-Henseleit buffer (containing 40 μg/ml bacitracin, 4 μg/ml each of leupeptin and chymostatin, 0.1% bovine serum albumin and 10 mM each of thiorphan and LiCl) added. After 15 min, SP was added to UC11 cells or NKA to SKLKB82#3 cells at various concentrations to start the reaction. After incubation for 60 min at room temperature the reaction was terminated by addition of 930 μl chloroform: methanol (1:2 by volume) to each tube, followed by 310 μl chloroform and 310 μl doubly distilled water. Samples were vortexed, centrifuged, and 0.9 ml of the aqueous (top) phase removed and added to 2 ml ddH2 O. The mixture was vortexed and loaded onto a 50% Bio-Rad AG 1-X8 (formate form, 100-200 mesh) exchange column (Bio-Rad Laboratories, Hercules, Calif.). The columns were washed, in order, with: 1) 10 ml doubly distilled water, 2) 5 ml of 5 mM disodium tetraborate/60 mM sodium formate, and 3) 5 ml of 1M ammonium formate/0.1M formic acid. The third elution was collected and 1 ml counted in 7 ml scintillation fluid. A 50 μl aliquot of the organic (bottom) phase was removed, dried in a scintillation vial and counted in 7 ml scintillation fluid.
(§4) The ratio of DPM in the aqueous phase aliquot (total inositol phosphates) to the DPM in the 50 μl organic phase aliquot (total [^3 H]inositol incorporated) was calculated for each sample. Data are expressed as a percent of agonist-induced accumulation of [^3 H]-inositol phosphates over basal levels. The ratios in the presence of test compound and/or standards were compared to the ratios for control samples (i.e. no stimulating agonist). Dose-response graphs were constructed and the abilities of the test compounds to inhibit tachykinin-induced phosphatidyinositol turnover determined with the aid of a computer program. […] Data is expressed as percent stimulation of total inositol phosphate accumulation over basal levels and normalized to the maximum response produced by SP. […] Schild analysis is performed using dose response curves (such as those presented in FIGS. 1a and 1b) to obtain a value indicative of the strength of a competitive antagonist and is expressed as the pA2, which is the negative logarithm of the molar concentration of antagonist which reduces the effect of a dose of agonist to one-half of that expected at the dose of agonist.

NK1 and NK2 receptors = assay: Modulation of respiratory effects produced by capsaicin aerosol in conscious guinea pigs; assay type: in vivo, guinea pig
Description: as §1, §2
Capsaicin aerosol is known to promote release of the tachykinins SP and NKA from sensory nerves in the airways of guinea pigs which may then act upon NK1 and NK2 receptors, respectively to elicit respiratory effects.

NK2 receptor [3] = molecular target: T2, NK2 receptor (Bos taurus, UniProt P05363); assay: Antagonism of NK2 receptor mediated (NKA-induced) phosphatidylinositol turnover in SKLKB82#3 cells; assay type: cell-based; details: SKLKB82#3 cells, NKA; Schild slope, mean (95% confidence limits)
T2 construct: expressed in transfected cells; host or cells: SKLKB82#3 cells
T2 sequence (P05363 1-384): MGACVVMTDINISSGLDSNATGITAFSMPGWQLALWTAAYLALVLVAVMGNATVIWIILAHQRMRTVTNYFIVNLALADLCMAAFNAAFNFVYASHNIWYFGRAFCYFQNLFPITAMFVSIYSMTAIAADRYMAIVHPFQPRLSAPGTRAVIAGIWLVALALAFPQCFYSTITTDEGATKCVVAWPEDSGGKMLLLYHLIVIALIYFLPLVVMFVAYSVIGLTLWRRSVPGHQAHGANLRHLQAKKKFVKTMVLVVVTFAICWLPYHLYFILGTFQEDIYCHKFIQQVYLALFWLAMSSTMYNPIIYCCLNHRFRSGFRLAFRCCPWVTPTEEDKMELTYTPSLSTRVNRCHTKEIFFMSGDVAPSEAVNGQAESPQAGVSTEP
Description: as §3
as §4, with “The ratios in the presence of test compound and/or standards were compared to the ratios for control samples (i.e. no stimulating agonist).” left out

NK1 receptor [4] = molecular target: T3, NK1 receptor (Cavia porcellus, UniProt P30547); assay: Antagonism of SP-induced plasma protein extravasation in guinea pig trachea; assay type: in vivo; details: guinea pig, iv; i.v. 2 min prior to SP; mean (95% confidence limits); at least 3 doses, at least 4 animals per dose; read-out: ED50 for inhibition of SP-induced plasma protein extravasation
T3 construct: evaluated in guinea pig lungs; tissue Keystone Biologicals, Cleveland, OH; host or cells: guinea pig lung
Description: SP-induced protein leakage through postcapillary venules was assessed by measuring Evans Blue dye accumulation in guinea pig trachea. Animals were anesthetized with pentobarbital then injected with Evans Blue dye (20 mg/kg, i.v., prepared in 0.9% NaCl solution). One minute after dye administration, the antagonist was administered (i.v.) followed by SP (0.3 nmole/kg, i.v.) and, after 5 min, excess dye removed from the circulation by transcardiac perfusion with 50 ml 0.9% NaCl solution. The trachea and primary bronchi were removed, blotted dry and weighed. Dye quantitation was performed spectrophotometrically ([…]) after extracting tissues in formamide for 24 hr at 50° C.. Values were subtracted from background (dye only, no agonist). ED50 (dose of compound which inhibits SP-induced plasma protein extravasation by 50%) was calculated from linear regression analysis.

T1 sequence (P25103 whole entry): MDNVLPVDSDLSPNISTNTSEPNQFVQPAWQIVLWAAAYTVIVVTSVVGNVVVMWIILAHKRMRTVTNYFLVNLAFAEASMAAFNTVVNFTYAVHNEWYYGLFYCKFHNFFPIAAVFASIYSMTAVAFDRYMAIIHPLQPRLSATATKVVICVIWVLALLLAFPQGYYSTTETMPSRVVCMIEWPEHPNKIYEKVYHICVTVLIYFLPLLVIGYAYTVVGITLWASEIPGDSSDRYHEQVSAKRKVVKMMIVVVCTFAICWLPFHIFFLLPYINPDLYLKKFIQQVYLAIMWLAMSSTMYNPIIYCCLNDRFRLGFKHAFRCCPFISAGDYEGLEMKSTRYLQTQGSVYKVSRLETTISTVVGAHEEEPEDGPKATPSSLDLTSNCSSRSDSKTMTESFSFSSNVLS
T3 sequence (P30547 whole entry): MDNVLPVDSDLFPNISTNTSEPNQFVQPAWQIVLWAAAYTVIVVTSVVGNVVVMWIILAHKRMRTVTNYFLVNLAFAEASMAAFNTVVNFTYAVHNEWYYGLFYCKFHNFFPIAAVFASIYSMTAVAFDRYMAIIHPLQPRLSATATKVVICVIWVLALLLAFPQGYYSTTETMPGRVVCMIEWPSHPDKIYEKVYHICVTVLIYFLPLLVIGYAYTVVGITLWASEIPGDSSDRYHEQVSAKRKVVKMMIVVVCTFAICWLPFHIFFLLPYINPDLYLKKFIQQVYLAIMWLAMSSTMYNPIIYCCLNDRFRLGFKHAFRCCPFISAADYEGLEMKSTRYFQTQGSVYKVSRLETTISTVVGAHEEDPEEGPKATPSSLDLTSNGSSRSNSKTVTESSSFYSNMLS

Question: `COc1cccc(OC)c1C(=O)N1CCC(CCN2CCC(C(N)=O)(c3ccccc3)CC2)(c2ccc(Cl)c(Cl)c2)C1` (stereo not drawn) [Example 5A, 1-[2-[3-(3,4-dichloro-phenyl)-1-[2,6-dimethoxy-benzoyl)-pyrrolidin-3-yl]-ethyl]-4-phenylpiperidine-4-carboxylic acid amide hydrochloride] was tested. Which dyspnea incidence (NK2 receptor [1]; 5 mg/kg) did it give?
Answer: 60%

Question: And the dyspnea incidence (NK2 receptor [1]; 10 mg/kg)?
Answer: 54%

Question: And the “effect on NKA-induced respiratory effects (in words)” value (NK2 receptor [1]; NKA aerosol, dose dependent)?
Answer: reduced the effects of NKA aerosol

Question: What about the “relative antagonism of NK1 and NK2 receptors (in words)” value (NK1 receptor [2]) of the same molecule?
Answer: antagonized both NK1 and NK2 receptors by nearly equivalent amounts

Question: With `COc1cccc(OC)c1C(=O)N1CCC(CCN2CCC(C(N)=O)(c3ccccc3)CC2)(c2ccc(Cl)c(Cl)c2)C1` (stereo not drawn) [Example 5, 1-[2-[3-(3,4-dichloro-phenyl)-1-(2,6-dimethoxy-benzoyl)-pyrrolidin-3-yl]-ethyl]-4-phenyl-piperidine-4-carboxylic acid amide] as the molecule, how does the “effect on capsaicin-induced respiratory effects (in words)” value (NK1 and NK2 receptors; oral) read?
Answer: antagonize the effects of capsaicin aerosol when administered orally

Question: With `COc1cc(C(=O)N2CCC(CCN3CCC(C(N)=O)(c4ccccc4)CC3)(c3ccc(Cl)c(Cl)c3)C2)cc(OC)c1OC` (racemic) [Example 3A, 1-[2-[3-(3,4-dichloro-phenyl)-1-(3,4,5-trimethoxy-benzoyl)-pyrrolidin-3-yl]-ethyl]-4-phenyl-piperidine-4-carboxylic acid amide hydrochloride] as the molecule, how does the dyspnea incidence (NK1 and NK2 receptors; 10 mg/kg, i.v. 20 min prior to capsaicin aerosol (0.001%)) read?
Answer: 89%

Question: And the dyspnea incidence (NK1 and NK2 receptors; 25 mg/kg, oral gavage 1 hr prior to capsaicin aerosol (0.001%))?
Answer: 80%

Question: And the dyspnea incidence (NK1 and NK2 receptors; 50 mg/kg, oral gavage 1 hr prior to capsaicin aerosol (0.001%))?
Answer: 70%

Question: And the dyspnea incidence (NK1 and NK2 receptors; 100 mg/kg, oral gavage 1 hr prior to capsaicin aerosol (0.001%))?
Answer: 50%

Question: What about the “effect on capsaicin-induced respiratory effects (in words)” value (NK1 and NK2 receptors; intravenous) of the same molecule?
Answer: attenuate capsaicin-induced respiratory effects

Question: And the “effect on capsaicin-induced respiratory effects (in words)” value (NK1 and NK2 receptors; oral)?
Answer: antagonize the effects of capsaicin aerosol when administered orally

Question: What about the NK-2 receptor slope (NK2 receptor [3]) of the same molecule?
Answer: 0.73

Question: And the “relative antagonism of NK1 and NK2 receptors (in words)” value (NK1 receptor [2])?
Answer: antagonized both NK1 and NK2 receptors by nearly equivalent amounts

Question: And the NK-1 receptor slope (NK1 receptor [2]; UC11 cells, SP, Schild slope, mean (95% confidence limits))?
Answer: 0.90

Question: What about the ED50 (NK1 receptor [4]) of the same molecule?
Answer: 0.17 mg/kg
